Laboratory results: patent US10233195B2, “Anti-fibrotic pyridinones” (InterMune, Inc., priority 2014, dated 2019)

Key:
[1] = tested on: TGF-b induced Endothelin-1 production; assay: ET-1 assay: inhibitory effect on TGF-b induced endothelin-1 production; assay type: cell-based; details: Homo sapiens, Fibroblast; fibroblasts, stimulant (TGFb, serum, LPA etc), ET-1 in media by ELISA, 4-parameter fit
Summary of the method: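 Fibroblasts (primary human lung/dermal, HFL-1, 3T3) serum-starved 0-48 h, preincubated ~30 min with compound, then stimulated (TGFb, serum or LPA) for 16-48 h. Secreted ET-1 measured by ELISA; EC50 from 4-parameter logistic fit, with CC50 from ATPlite in the same wells.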

[2] = tested on: Fibroblasts (primary human lung and dermal, HFL-1, 3T3 etc); assay: Cell proliferation assay (BrdU incorporation); assay type: cell-based; details: HFL1, stimulant (LPA, TGFb, serum etc), 50% inhibition of the increase of BrdU incorporation
Description: Assay of Inhibitory Effect on Cell Proliferation (BrdU Incorporation)
Fibroblasts (primary human lung and dermal, HFL-1, 3T3 etc) were plated on a 96-well plate and serum starved for 24-48 hours. The media were then exchanged for media containing stimulants (LPA, TGFb, serum etc) and cultured further for 16-24 hours before BrdU addition. After culturing for another 8 hours, cells were washed with PBS and the amount of BrdU incorporated into the cells was assayed by absorbance at 450 nm using the Cell proliferation ELISA system (RPN250, Amersham LIFE SCIENCE). The difference between the amount of BrdU incorporated in the stimulant-added well and the amount of BrdU incorporated in the well containing no stimulant represented the amount of BrdU incorporation accelerated by stimulant. The increase of BrdU incorporation without the addition of test compounds was set as 100% and the concentration of compound with 50% inhibition in the increase of BrdU incorporation (IC50 value) was determined. The test compounds were added 0-30 min before stimulant addition.
Compounds of some embodiments were prepared according to synthetic methods described herein and assay data obtained for IC50 for BrdU inhibition. The assay data obtained is presented in Table 3, in which A=less than 50 μM, B=greater than or equal to 50 μM and less than or equal to 200 μM; and C=greater than 200 μM.

SMILES	EC50 [1]	IC50 [2]
Cn1cc(-c2cn(-c3ccc(OC(F)(F)F)cc3)c(=O)cc2NCc2ccc(Cl)cc2)cn1 [Compound 406]	50 to 200 µM	< 50 µM
Cn1cc(-c2cn(-c3ccc(OC(F)(F)F)cc3)c(=O)cc2NCc2ccc(F)cc2)cn1 [Compound 407]	< 50 µM	< 50 µM
Cn1cc(-c2cn(-c3ccc(OC(F)(F)F)cc3)c(=O)cc2Oc2ccc(F)cc2)cn1 [Compound 410]	< 50 µM	< 50 µM
Cn1cc(-c2cn(-c3ccc(OC(F)(F)F)cc3)c(=O)cc2NCc2cnccn2)cn1 [Compound 411]	50 to 200 µM	< 50 µM
Cn1cc(-c2cn(-c3ccc(OC(F)(F)F)cc3)c(=O)cc2Oc2cccc(Cl)c2)cn1 [Compound 413]	< 50 µM	< 50 µM
Cn1cc(-c2cn(-c3ccc(OC(F)(F)F)cc3)c(=O)cc2Oc2ccccc2Cl)cn1 [Compound 414]	< 50 µM	< 50 µM
Cc1cc(=O)n(-c2ccc(OC(F)(F)F)cc2)cc1-c1cccc2c1OC(F)(F)O2 [Compound 415]	< 50 µM	< 50 µM
CCOC(=O)Nc1cccc(-n2cc(-c3ccc(F)cc3)c(C)cc2=O)c1 [Compound 416]	< 50 µM	< 50 µM
Cc1cc(=O)n(-c2cccc(NC(=O)N(C)C)c2)cc1-c1ccc(F)cc1 [Compound 417]	< 50 µM	< 50 µM
Cc1cc(=O)n(-c2ccc(NC(N)=O)cc2)cc1-c1ccc(F)cc1 [Compound 418]	50 to 200 µM	50 to 200 µM
CNC(=O)Nc1cccc(-n2cc(-c3ccc(F)cc3)c(C)cc2=O)c1 [Compound 419]	50 to 200 µM	50 to 200 µM
Cc1cc(=O)n(-c2ccc(OC(F)(F)F)cc2)cc1-c1ccc2c(c1)OCC(=O)N2 [Compound 424]	50 to 200 µM	< 50 µM
Cc1cc(=O)n(-c2ccc(OC(F)(F)F)cc2)cc1-c1ccc2c(c1)OCC(=O)N2C [Compound 425]	< 50 µM	< 50 µM
CCn1c(=O)oc2cc(-c3cn(-c4ccc(OC(F)(F)F)cc4)c(=O)cc3C)ccc21 [Compound 430]	< 50 µM	< 50 µM
Cc1cc(=O)n(-c2ccc(Cl)cc2)cc1-c1cn[nH]c1 [Compound 431]	> 200 µM	50 to 200 µM
Cc1cc(=O)n(-c2ccc(Cl)cc2)cc1-c1ccnnc1 [Compound 432]	> 200 µM	50 to 200 µM
Cn1cc(-c2cn(-c3ccc(OC(F)(F)F)cc3)c(=O)cc2NCc2cncnc2)cn1 [Compound 531]	< 50 µM	< 50 µM
Cn1cc(C2=CN(c3ccc(OC(F)(F)F)cc3)CC=C2Oc2ccc(C(N)=O)cc2)cn1 [Compound 535]	< 50 µM	< 50 µM
Cn1cc(-c2c[nH]c(=O)cc2NCc2ncccn2)cn1 [Compound 542]	< 50 µM	< 50 µM
CCOc1ccc(-n2cc(-c3cnn(C)c3)c(NCc3ccccc3)cc2=O)c(C)c1 [Compound 543]	< 50 µM	< 50 µM
Cn1cc(-c2c[nH]c(=O)cc2NCc2ccccn2)cn1 [Compound 544]	50 to 200 µM	< 50 µM

SMILES	EC50 [1]	IC50 [2]
O=c1cc(NCc2ccccn2)ccn1-c1ccc(OC(F)(F)F)cc1 [Compound 547]	< 50 µM	< 50 µM
CCOc1ccc(-n2cc(-c3cnn(C)c3)c(OCCOC)cc2=O)c(C)c1 [Compound 550]	< 50 µM	< 50 µM
Cc1cc(=O)n(-c2ccc(OC(F)(F)F)cc2)cc1-c1ccc2oc(=O)[nH]c2c1 [Compound 553]	< 50 µM	< 50 µM
Cc1cc(=O)n(-c2ccccc2NC(N)=O)cc1-c1ccc(F)cc1 [Compound 557]	< 50 µM	< 50 µM
CCn1c(=O)oc2ccc(-c3c[nH]c(=O)cc3C)cc21 [Compound 562]	< 50 µM	< 50 µM
Cc1cc(=O)[nH]cc1-c1ccc2c(c1)OCC(=O)N2C [Compound 563]	< 50 µM	< 50 µM
Cc1cc(=O)[nH]cc1-c1cccc2c1OC(F)(F)O2 [Compound 565]	< 50 µM	< 50 µM
Cc1nc2c(=O)n(-c3ccc(OC(F)(F)F)cc3)cc(-c3cnn(C)c3)c2o1 [Compound 569]	< 50 µM	< 50 µM
Cc1nc2c(=O)n(-c3ccc(OC(F)(F)F)cc3)ccc2o1 [Compound 570]	> 200 µM	> 200 µM
CCOc1ccc(-n2cc(-c3cn[nH]c3)c3nccnc3c2=O)c(C)c1 [Compound 574]	< 50 µM	< 50 µM
O=c1c2nccnc2ccn1-c1ccc(OC(F)(F)F)cc1 [Compound 575]	< 50 µM	< 50 µM
Cn1cc(-c2cn(-c3ccc(OC(F)(F)F)cc3)c(=O)c3scnc23)cn1 [Compound 583]	< 50 µM	< 50 µM
Cn1cc(-c2cn(-c3ccc(OC(F)(F)F)cc3)c(=O)c3[nH]ncc23)cn1 [Compound 588]	> 200 µM	< 50 µM
O=c1c2[nH]ccc2c(-c2ccc(F)cc2)cn1-c1ccc(OC(F)(F)F)cc1 [Compound 591]	< 50 µM	> 200 µM
CCn1ccc2c(-c3ccc(F)cc3)cn(-c3ccc(OC(F)(F)F)cc3)c(=O)c21 [Compound 594]	< 50 µM	< 50 µM
CCn1ccc2c(-c3ccc(F)cc3)c[nH]c(=O)c21 [Compound 595]	< 50 µM	50 to 200 µM
Cn1ccc2c(-c3cn[nH]c3)cn(-c3ccc(C#N)cc3)c(=O)c21 [Compound 600]	< 50 µM	> 200 µM
CCOc1ccc(-n2cc(-c3cn[nH]c3)c3ccn(C)c3c2=O)c(C)c1 [Compound 601]	< 50 µM	< 50 µM
Cn1ccc2c(-c3cn[nH]c3)cn(-c3ccc(OC(F)(F)F)cc3)c(=O)c21 [Compound 602]	< 50 µM	< 50 µM
Cn1cc(-c2cn(-c3ccc(OC(F)(F)F)cc3)c(=O)c3[nH]ccc23)cn1 [Compound 603]	< 50 µM	< 50 µM
O=c1c2[nH]ccc2c(-c2cn[nH]c2)cn1-c1ccc(OC(F)(F)F)cc1 [Compound 604]	< 50 µM	< 50 µM

SMILES	EC50 [1]	IC50 [2]
Cn1cc(-c2cn(-c3ccc(Cl)cc3)c(=O)c3[nH]ccc23)cn1 [Compound 605]	< 50 µM	< 50 µM
O=c1c2[nH]ccc2c(-c2cn[nH]c2)cn1-c1ccc(Cl)cc1 [Compound 606]	< 50 µM	< 50 µM
CCOc1ccc(-n2cc(-c3cn[nH]c3)c3cc[nH]c3c2=O)c(C)c1 [Compound 607]	< 50 µM	< 50 µM
O=c1c2[nH]ccc2ccn1-c1ccc(OC(F)(F)F)cc1 [Compound 609]	< 50 µM	< 50 µM
CCn1ccc2ccn(-c3ccc(OC(F)(F)F)cc3)c(=O)c21 [Compound 610]	< 50 µM	< 50 µM
CCn1ccc2c(-c3cnn(CCO)c3)cn(-c3ccc(OC(F)(F)F)cc3)c(=O)c21 [Compound 615]	< 50 µM	< 50 µM
CCn1cnc2c(-c3cnn(C)c3)cn(-c3ccc(OC(F)(F)F)cc3)c(=O)c21 [Compound 617]	< 50 µM	50 to 200 µM
CCn1cnc2c(-c3cnn(C)c3)c[nH]c(=O)c21 [Compound 618]	50 to 200 µM	50 to 200 µM
CCn1nc2c(-c3cnn(C)c3)cn(-c3ccc(OC(F)(F)F)cc3)c(=O)c2n1 [Compound 619]	< 50 µM	< 50 µM
CCn1nc2c(-c3cn[nH]c3)cn(-c3ccc(OC(F)(F)F)cc3)c(=O)c2n1 [Compound 620]	< 50 µM	< 50 µM
CCn1nnc2c(=O)n(-c3ccc(OC(F)(F)F)cc3)cc(-c3cnn(C)c3)c21 [Compound 624]	< 50 µM	< 50 µM
CCn1nnc2c(-c3cnn(C)c3)cn(-c3ccc(OC(F)(F)F)cc3)c(=O)c21 [Compound 625]	< 50 µM	< 50 µM
CCn1ccc2c(=O)n(-c3ccc(OC(F)(F)F)cc3)cc(-c3ccc(F)cc3)c21 [Compound 626]	< 50 µM	< 50 µM
CCOc1ccc(-n2cc(-c3ccnnc3)c(C)cc2=O)c(C)c1 [Compound 629]	< 50 µM	> 200 µM
Cn1cc(-c2cn(-c3ccc(OC(F)(F)F)cc3)c(=O)c3[nH]nnc23)cn1 [Compound 631]	< 50 µM	> 200 µM
CCn1cnc2c(=O)n(-c3ccc(OC(F)(F)F)cc3)cc(-c3cnn(C)c3)c21 [Compound 636]	> 200 µM	> 200 µM
CC(C)n1ccc2c(-c3cnn(C)c3)cn(-c3ccc(OC(F)(F)F)cc3)c(=O)c21 [Compound 647]	< 50 µM	< 50 µM
CC(C)n1ccc2c(-c3cn[nH]c3)cn(-c3ccc(OC(F)(F)F)cc3)c(=O)c21 [Compound 648]	< 50 µM	< 50 µM
Cn1cc(-c2cn(-c3ccc(OC(F)(F)F)cc3)c(=O)c3c2ccn3C2CC2)cn1 [Compound 649]	< 50 µM	50 to 200 µM
